Measurements published in article PMC2730633 (Bioorganic & medicinal chemistry letters, 2009).

Tests used:
[1] = biological target: Tel-Lyn (Homo sapiens, UniProt P07948+P41212); assay: Tyrosine kinase transformed Ba/F3 cellular assay; assay type: cell-based; conditions: for cellular activity against Src-family kinases (Tel-Lyn): Ba/F3
[2] = biological target: T1, EphA6 (Homo sapiens, UniProt Q9UF33); assay: KinomeScan dose-response dissociation constant; conditions: KinomeScan binding
T1 sequence (Q9UF33 23-1036): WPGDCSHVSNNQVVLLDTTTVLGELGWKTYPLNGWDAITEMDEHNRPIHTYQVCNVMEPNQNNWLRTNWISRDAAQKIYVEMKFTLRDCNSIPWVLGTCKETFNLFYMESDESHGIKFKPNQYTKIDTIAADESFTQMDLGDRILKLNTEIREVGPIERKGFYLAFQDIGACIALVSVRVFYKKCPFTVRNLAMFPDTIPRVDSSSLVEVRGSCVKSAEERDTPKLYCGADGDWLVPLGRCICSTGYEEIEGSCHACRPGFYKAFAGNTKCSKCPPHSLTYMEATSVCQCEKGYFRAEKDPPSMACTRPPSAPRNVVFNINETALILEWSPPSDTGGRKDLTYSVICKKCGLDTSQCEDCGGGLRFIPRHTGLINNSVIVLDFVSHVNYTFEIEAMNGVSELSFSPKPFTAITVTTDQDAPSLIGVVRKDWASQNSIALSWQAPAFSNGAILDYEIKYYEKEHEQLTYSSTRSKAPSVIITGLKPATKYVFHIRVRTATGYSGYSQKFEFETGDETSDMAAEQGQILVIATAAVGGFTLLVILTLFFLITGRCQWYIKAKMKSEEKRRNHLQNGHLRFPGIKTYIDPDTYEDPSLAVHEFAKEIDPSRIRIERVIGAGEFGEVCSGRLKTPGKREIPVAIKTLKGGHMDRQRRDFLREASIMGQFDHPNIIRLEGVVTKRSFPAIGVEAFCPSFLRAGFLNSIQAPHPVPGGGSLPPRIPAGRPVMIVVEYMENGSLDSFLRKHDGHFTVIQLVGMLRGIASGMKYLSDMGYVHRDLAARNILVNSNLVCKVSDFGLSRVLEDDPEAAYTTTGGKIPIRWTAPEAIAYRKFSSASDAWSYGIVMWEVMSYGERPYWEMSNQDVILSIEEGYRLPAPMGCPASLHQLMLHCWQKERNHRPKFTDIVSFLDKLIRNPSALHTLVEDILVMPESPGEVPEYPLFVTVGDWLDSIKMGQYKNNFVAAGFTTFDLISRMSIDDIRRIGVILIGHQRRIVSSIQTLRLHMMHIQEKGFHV

[3] = biological target: Tel-Src (Homo sapiens, UniProt P12931+P41212); assay: Tyrosine kinase transformed Ba/F3 cellular assay; assay type: cell-based; conditions: for cellular activity against Src-family kinases (Tel-Src): Ba/F3
Sequence of Tel-Src (P12931 270-523 limits assumed, one chain of several): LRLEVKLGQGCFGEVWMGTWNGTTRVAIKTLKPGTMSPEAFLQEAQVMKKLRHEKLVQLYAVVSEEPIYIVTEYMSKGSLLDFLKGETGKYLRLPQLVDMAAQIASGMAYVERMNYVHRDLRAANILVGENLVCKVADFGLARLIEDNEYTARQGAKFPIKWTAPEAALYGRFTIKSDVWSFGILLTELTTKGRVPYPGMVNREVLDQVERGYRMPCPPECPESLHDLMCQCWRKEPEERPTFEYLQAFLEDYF

[4] = biological target: EphA7 (Homo sapiens, UniProt Q15375); assay: KinomeScan dose-response dissociation constant; assay type: binding; conditions: for inhibition of EphA7: KinomeScan binding
Sequence of EphA7 (Q15375 28-998, species assumed): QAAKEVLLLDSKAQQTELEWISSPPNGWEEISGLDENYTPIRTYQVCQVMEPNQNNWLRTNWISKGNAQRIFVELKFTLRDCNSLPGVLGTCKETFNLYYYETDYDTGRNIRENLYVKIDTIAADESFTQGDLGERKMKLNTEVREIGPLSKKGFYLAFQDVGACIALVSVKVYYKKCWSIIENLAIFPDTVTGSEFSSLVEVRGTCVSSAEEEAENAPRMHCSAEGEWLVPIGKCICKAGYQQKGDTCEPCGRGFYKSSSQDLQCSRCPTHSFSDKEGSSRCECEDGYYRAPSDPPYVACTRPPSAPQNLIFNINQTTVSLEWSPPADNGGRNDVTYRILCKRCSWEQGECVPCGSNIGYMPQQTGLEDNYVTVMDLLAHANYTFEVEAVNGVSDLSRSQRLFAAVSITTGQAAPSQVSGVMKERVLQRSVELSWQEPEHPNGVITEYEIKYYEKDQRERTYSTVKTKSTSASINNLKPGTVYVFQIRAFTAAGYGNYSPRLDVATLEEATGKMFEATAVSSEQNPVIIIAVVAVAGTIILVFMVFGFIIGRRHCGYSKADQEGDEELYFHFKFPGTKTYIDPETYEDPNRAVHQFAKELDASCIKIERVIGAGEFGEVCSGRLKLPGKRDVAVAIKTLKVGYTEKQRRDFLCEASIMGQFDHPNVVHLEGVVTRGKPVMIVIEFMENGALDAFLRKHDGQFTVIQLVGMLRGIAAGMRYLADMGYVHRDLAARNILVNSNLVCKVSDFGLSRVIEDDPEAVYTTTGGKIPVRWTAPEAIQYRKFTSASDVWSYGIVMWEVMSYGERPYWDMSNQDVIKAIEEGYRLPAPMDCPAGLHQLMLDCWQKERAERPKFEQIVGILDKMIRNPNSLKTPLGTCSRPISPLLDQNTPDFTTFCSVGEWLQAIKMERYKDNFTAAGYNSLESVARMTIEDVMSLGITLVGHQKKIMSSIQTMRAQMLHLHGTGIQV

[5] = system: b-raf, CSF1R, DDR1, DDR2, EphA2, EphA5, EphA8, EphB1, EphB2, EphB3, Frk, Kit, Lck, p38α, p38β, PDGFRα, PDGFRβ, Raf1; assay: Ambit KinomeScan panel of 402 kinases, single concentration; assay type: binding; conditions: single concentration of 10 µM
[6] = biological target: T2, EphB1 (Homo sapiens, UniProt P54762); assay: KinomeScan dose-response dissociation constant; conditions: KinomeScan binding
T2 sequence (P54762 18-984): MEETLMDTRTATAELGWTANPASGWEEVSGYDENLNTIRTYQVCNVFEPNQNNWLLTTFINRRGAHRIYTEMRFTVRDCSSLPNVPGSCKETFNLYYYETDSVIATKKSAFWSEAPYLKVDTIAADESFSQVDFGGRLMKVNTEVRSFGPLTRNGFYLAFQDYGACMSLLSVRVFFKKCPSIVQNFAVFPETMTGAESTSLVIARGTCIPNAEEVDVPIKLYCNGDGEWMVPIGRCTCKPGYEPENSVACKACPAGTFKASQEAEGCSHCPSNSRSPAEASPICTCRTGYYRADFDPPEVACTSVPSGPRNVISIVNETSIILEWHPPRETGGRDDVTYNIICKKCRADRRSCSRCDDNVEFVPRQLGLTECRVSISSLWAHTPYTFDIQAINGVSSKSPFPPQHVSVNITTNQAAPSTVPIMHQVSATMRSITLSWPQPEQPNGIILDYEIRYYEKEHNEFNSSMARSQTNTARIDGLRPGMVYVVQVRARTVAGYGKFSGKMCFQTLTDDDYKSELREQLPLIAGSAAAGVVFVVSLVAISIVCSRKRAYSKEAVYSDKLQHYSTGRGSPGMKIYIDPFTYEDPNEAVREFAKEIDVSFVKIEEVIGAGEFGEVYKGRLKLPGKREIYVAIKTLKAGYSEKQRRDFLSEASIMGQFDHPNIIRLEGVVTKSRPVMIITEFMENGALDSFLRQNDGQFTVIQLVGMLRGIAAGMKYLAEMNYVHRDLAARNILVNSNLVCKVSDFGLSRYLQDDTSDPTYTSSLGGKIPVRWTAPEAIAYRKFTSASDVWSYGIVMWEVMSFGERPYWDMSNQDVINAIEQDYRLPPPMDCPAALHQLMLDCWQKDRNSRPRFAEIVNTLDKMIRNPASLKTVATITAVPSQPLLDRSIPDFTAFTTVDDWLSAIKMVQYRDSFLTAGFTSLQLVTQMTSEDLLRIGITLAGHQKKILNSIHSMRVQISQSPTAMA

[7] = biological target: b-raf (Homo sapiens, UniProt P15056); assay: Cellular activity against b-raf; assay type: cell-based
Sequence of b-raf (P15056 whole entry, species assumed): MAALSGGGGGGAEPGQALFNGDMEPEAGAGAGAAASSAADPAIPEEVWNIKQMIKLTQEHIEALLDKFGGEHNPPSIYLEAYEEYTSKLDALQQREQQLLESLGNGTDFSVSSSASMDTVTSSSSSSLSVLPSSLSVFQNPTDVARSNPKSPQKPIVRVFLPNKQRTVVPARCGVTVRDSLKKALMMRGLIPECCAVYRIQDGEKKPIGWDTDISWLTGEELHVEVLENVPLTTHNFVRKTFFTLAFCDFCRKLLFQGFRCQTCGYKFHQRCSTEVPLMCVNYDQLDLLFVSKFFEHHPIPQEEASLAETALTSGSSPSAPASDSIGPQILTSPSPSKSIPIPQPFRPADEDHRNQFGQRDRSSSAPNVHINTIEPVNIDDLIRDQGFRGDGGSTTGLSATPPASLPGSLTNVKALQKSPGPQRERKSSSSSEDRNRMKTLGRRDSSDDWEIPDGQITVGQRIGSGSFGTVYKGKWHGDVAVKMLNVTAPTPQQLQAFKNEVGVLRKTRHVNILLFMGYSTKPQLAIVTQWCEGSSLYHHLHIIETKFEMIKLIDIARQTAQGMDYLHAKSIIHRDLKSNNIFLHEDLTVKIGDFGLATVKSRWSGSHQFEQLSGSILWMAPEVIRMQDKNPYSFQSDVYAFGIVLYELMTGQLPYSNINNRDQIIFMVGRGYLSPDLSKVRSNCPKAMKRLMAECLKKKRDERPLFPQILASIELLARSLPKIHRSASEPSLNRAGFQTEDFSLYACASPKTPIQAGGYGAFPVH

[8] = biological target: Bcr-Abl (Homo sapiens, UniProt P00519+P11274); assay: Tyrosine kinase transformed Ba/F3 cellular assay; assay type: cell-based; conditions: for cross reactivity with Bcr-Abl: Ba/F3 panel screen
Sequence of Bcr-Abl (P00519 28-1130 limits assumed, one chain of several): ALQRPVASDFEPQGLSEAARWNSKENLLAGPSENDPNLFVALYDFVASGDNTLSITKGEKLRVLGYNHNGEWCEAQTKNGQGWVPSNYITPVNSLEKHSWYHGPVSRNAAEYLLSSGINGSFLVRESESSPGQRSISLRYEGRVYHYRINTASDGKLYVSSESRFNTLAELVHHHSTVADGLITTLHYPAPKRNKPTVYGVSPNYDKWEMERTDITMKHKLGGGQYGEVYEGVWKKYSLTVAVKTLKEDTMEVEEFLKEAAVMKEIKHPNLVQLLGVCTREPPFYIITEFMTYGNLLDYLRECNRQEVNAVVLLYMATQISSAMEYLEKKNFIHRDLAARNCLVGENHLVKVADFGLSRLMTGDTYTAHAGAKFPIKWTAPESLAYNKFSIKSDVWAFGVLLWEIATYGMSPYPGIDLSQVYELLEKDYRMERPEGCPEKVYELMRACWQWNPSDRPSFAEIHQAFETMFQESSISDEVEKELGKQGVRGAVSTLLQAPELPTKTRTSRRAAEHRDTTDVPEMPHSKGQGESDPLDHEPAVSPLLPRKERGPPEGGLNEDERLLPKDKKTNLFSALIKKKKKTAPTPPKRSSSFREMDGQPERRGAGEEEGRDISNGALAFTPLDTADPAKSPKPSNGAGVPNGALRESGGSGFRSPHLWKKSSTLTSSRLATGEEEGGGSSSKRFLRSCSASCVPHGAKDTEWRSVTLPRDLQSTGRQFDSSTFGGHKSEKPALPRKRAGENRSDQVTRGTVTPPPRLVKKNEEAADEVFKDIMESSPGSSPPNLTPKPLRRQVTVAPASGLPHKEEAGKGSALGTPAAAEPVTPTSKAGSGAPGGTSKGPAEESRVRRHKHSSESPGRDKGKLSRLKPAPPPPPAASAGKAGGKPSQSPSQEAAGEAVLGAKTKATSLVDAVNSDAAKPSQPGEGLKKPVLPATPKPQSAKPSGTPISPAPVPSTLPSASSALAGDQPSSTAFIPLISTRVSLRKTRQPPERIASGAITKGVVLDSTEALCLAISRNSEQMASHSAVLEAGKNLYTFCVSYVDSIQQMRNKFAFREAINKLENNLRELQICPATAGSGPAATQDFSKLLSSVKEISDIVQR

[9] = biological target: T3, Tel fusion of EphA3 (Homo sapiens, UniProt P29320); assay: Tyrosine kinase transformed Ba/F3 cellular assay; assay type: cell-based; conditions: Ba/F3 cells transformed with Tel fusion of EphA3
T3 sequence (P29320 621-882): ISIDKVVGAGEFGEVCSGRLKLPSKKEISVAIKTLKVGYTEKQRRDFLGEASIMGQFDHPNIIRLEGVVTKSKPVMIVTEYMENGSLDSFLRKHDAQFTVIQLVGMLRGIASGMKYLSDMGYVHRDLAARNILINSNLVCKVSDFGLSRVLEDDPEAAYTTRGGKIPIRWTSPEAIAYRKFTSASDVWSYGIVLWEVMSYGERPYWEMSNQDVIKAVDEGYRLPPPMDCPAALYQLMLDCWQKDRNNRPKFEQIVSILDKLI
T3 sequence (P41212 40-124 partner): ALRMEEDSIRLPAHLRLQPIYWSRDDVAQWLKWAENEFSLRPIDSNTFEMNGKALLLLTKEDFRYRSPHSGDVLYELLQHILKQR

[10] = system: Eph-family kinases; assay: Invitrogen SelectScreen biochemical kinase activity assay; conditions: [Km,app] ATP, starting concentration 10 µM
[11] = biological target: FGFR3 (Homo sapiens, UniProt P22607); assay: Tyrosine kinase transformed Ba/F3 cellular assay; assay type: cell-based; conditions: Ba/F3 panel screen, printed FGFR2/3/4
Sequence of FGFR3 (P22607 472-761 limits assumed): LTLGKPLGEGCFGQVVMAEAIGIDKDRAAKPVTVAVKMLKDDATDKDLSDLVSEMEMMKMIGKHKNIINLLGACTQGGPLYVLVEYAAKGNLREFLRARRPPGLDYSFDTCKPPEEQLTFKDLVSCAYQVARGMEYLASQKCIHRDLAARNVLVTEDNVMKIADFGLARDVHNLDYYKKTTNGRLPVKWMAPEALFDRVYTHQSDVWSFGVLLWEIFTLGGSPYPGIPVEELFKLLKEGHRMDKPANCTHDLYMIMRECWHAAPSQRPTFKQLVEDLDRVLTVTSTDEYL

[12] = biological target: FGFR2 (Homo sapiens, UniProt P21802); assay: Tyrosine kinase transformed Ba/F3 cellular assay; assay type: cell-based; conditions: Ba/F3 panel screen, printed FGFR2/3/4
Sequence of FGFR2 (P21802 481-770 limits assumed, species assumed): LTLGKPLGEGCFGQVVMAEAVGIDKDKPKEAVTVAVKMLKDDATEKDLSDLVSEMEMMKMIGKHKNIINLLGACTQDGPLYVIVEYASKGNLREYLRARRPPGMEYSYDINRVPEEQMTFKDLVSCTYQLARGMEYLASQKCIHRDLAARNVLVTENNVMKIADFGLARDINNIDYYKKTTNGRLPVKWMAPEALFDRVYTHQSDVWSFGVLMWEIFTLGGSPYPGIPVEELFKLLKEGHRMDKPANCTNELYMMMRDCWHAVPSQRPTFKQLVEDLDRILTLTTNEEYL

[13] = biological target: FGFR4 (Homo sapiens, UniProt P22455); assay: Tyrosine kinase transformed Ba/F3 cellular assay; assay type: cell-based; conditions: Ba/F3 panel screen, printed FGFR2/3/4
Sequence of FGFR4 (P22455 467-755 limits assumed): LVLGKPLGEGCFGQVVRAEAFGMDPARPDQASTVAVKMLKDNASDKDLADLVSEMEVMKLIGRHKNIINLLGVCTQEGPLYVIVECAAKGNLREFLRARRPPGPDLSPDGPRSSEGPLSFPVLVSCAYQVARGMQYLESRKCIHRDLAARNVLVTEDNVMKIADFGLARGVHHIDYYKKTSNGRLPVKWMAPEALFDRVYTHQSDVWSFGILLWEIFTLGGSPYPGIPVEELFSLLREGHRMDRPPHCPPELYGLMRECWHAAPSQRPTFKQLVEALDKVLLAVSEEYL

[14] = biological target: T4, EphB2 (Homo sapiens, UniProt P29323); conditions: proteomic and cellular screening approaches ref 10, 9; cited from earlier work
T4 sequence (P29323 19-1055): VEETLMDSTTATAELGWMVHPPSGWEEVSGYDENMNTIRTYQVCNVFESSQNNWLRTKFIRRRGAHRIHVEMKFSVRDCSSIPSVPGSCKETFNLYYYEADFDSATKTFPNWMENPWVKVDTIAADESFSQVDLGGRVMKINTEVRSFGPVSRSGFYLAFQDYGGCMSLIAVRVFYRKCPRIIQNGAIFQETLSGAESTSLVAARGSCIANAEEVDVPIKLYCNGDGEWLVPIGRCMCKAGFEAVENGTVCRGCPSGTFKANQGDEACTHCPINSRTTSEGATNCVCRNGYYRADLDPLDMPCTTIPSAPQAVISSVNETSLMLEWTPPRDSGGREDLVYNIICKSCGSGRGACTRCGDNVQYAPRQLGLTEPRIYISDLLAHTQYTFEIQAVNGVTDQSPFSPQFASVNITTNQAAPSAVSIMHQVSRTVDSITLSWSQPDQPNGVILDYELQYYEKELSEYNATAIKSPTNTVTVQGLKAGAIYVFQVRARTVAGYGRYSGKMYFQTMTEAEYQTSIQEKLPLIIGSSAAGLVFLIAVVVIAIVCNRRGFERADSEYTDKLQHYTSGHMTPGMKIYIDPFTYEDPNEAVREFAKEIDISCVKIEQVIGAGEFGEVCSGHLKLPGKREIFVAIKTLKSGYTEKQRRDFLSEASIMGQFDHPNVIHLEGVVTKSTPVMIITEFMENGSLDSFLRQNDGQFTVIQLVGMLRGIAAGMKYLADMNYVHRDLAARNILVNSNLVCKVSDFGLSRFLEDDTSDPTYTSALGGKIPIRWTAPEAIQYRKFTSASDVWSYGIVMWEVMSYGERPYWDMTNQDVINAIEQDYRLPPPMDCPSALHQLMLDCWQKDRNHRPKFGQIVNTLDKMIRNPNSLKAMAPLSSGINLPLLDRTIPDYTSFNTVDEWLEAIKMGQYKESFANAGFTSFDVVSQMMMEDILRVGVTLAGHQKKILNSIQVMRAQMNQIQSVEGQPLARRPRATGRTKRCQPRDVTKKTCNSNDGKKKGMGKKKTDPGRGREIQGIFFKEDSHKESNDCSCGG

[15] = system: Bcr-Abl threonine to isoleucine gatekeeper substitution; conditions: threonine to isoleucine substitution of the gatekeeper position ref 21; cited from earlier work

Sequence of Tel-Lyn (P07948 247-501 limits assumed, one chain of several): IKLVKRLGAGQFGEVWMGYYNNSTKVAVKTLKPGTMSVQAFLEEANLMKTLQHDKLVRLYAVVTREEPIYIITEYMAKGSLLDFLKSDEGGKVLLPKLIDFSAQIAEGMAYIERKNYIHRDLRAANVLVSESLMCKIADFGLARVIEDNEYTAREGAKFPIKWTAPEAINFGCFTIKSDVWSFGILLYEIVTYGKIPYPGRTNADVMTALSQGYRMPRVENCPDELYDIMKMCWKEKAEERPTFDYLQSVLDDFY

## Cc1cn(-c2cc(NC(=O)c3ccc(C)c(NC(=O)c4ccno4)c3)cc(C(F)(F)F)c2)cn1 [Compound 6]
[1]
  cellular activity against Src-family kinases (Tel-Lyn): did not exhibit significant cellular activity
[2]
  inhibition of EphA6: not inhibited
[3]
  cellular activity against Src-family kinases (Tel-Src): did not exhibit significant cellular activity
[4]
  inhibition of EphA7: not inhibited
[5]
  selectivity profile (binding to kinases): binding to a common set of kinases
[6]
  inhibition of EphB1: not inhibited
[7]
  cellular activity against b-raf: did not exhibit significant cellular activity

## CCN1CCN(Cc2ccc(NC(=O)c3ccc(C)c(NC(=O)c4cncc(-c5cccs5)c4)c3)cc2C(F)(F)F)CC1 [Compound 7]
[1]; Ba/F3 cells transformed with Tel fusion of Lyn
  EC50: < 500 nM
[8]; Ba/F3 cells transformed with Bcr-Abl
  EC50: < 500 nM
[8]
  cross reactivity with Bcr-Abl: cross reactivity
[3]
  EC50: < 500 nM
[5]
  selectivity profile (binding to kinases): inhibited all these kinases and many more
[9]
  EC50: < 500 nM

## Cc1ccc(C(=O)Nc2cccc(C(F)(F)F)c2)cc1Nc1ccc2occc(=O)c2c1 [Compound 8]
[2]
  inhibition of EphA6: not inhibited
[8]
  cross reactivity with Bcr-Abl: cross reactivity
[4]
  inhibition of EphA7: not inhibited
[5]
  selectivity profile (binding to kinases): binding to a common set of kinases
[6]
  inhibition of EphB1: not inhibited

## Cc1ccc(C(=O)Nc2cccc(C(F)(F)F)c2)cc1Nc1cncc(C(N)=O)c1 [Compound 9]
[1]
  cellular activity against Src-family kinases (Tel-Lyn): did not exhibit significant cellular activity
[2]
  inhibition of EphA6: not inhibited
[3]
  cellular activity against Src-family kinases (Tel-Src): did not exhibit significant cellular activity
[10]
  selectivity and potency (IC50): good selectivity for Eph-family kinases with moderate potency
[4]
  affinity for EphA7: relatively low affinity
  inhibition of EphA7: not inhibited
[5]
  selectivity profile (binding to kinases): binding to a common set of kinases
[6]
  inhibition of EphB1: not inhibited
[7]
  cellular activity against b-raf: did not exhibit significant cellular activity

## Cc1ccc(C(=O)Nc2cccc(C(F)(F)F)c2)cc1Nc1[nH]cnc2ncnc1-2 [Compound 10]
[11]
  cross reactivity with FGFR3: cross reactivity
[12]
  cross reactivity with FGFR2: cross reactivity
[13]
  cross reactivity with FGFR4: cross reactivity

## Cc1nc(Nc2ncc(C(=O)Nc3c(C)cccc3Cl)s2)cc(N2CCN(CCO)CC2)n1 [dasatinib]
[14]
  EphB2 as target: identified as a target

## Cc1cn(-c2cc(NC(=O)c3ccc(C)c(Nc4nccc(-c5cccnc5)n4)c3)cc(C(F)(F)F)c2)cn1 [nilotinib]
[15]
  inhibition of Bcr-Abl gatekeeper mutation: not inhibited
[14]
  EphB2 as target: identified as a target
